Source: ChEMBL document CHEMBL3774389, “C-3 benzoic acid derivatives of C-3 deoxybetulinic acid and deoxybetulin as HIV-1 maturation inhibitors” (Bioorg Med Chem, 2016)

Assays:
[1] = Cytotoxicity against human MT2 cells assessed as cell viability by redox dye assay; assay type: cell-based
[2] = test system: Human immunodeficiency virus 1; assay: Antiviral activity against wild type HIV1 NLRepRlucP373S infected in human MT2 cells after 4 to 5 days by luciferase report gene based multiple cycle drug susceptibility assay; assay type: functional, organism-based; conditions: Human immunodeficiency virus 1, NLRepRlucP373S
[3] = test system: Human immunodeficiency virus 1; assay: Ratio of EC50 for HIV1 NLRepRlucP373S infected in human MT2 cells in presence of HSA to EC50 for HIV1 NLRepRlucP373S infected in human MT2 cells in absence of HSA; assay type: functional
[4] = test system: Human immunodeficiency virus 1; assay: Antiviral activity against wild type HIV1 NLRepRlucP373S infected in human MT2 cells after 4 to 5 days in presence of 15 mg/ml HSA by luciferase report gene based multiple cycle drug susceptibility assay; assay type: functional, organism-based; conditions: Human immunodeficiency virus 1, NLRepRlucP373S
[5] = test system: Human immunodeficiency virus 1; assay: Antiviral activity against HIV1 containing gag V370A mutant infected in human MT2 cells after 4 to 5 days by luciferase report gene based multiple cycle drug susceptibility assay; assay type: functional, organism-based; conditions: Human immunodeficiency virus 1, MT2

Row | Compound | CC50 [1] [µM] | EC50 [2] [µM] | Ratio EC50 [3] | EC50 [4] [µM] | EC50 [5] [µM]
1 | C=C(C)[C@@H]1CC[C@]2(C(=O)O)CC[C@]3(C)[C@H](CC[C@@H]4[C@@]5(C)CC=C(c6ccc(C#N)cc6)C(C)(C)[C@@H]5CC[C@]43C)[C@@H]12 | 4.45 | > 1.6 |  |  | 
2 | C=C(C)[C@@H]1CC[C@]2(CO)CC[C@]3(C)[C@H](CC[C@@H]4[C@@]5(C)CC=C(c6cc(C(=O)O)no6)C(C)(C)[C@@H]5CC[C@]43C)[C@@H]12 | 12.1 | 0.039 | 7.5 | 0.295 | > 2
3 | C=C(C)[C@@H]1CC[C@]2(CO)CC[C@]3(C)[C@H](CC[C@@H]4[C@@]5(C)CC=C(c6ccc(C(=O)O)cc6C)C(C)(C)[C@@H]5CC[C@]43C)[C@@H]12 | 7.02 | 0.613 | 1 | 0.66 | 3.88
4 | C=C(C)[C@@H]1CC[C@]2(CO)CC[C@]3(C)[C@H](CC[C@@H]4[C@@]5(C)CC=C(c6ccc(C(=O)O)cc6Cl)C(C)(C)[C@@H]5CC[C@]43C)[C@@H]12 | 17.3 | 0.114 | 1 | 0.117 | > 4
5 | C=C(C)[C@@H]1CC[C@]2(C(=O)O)CC[C@]3(C)[C@H](CC[C@@H]4[C@@]5(C)CC=C(c6ccc(-c7cnc8ccccc8c7C(=O)O)cc6)C(C)(C)[C@@H]5CC[C@]43C)[C@@H]12 | 15.9 | 3.6 |  |  | 
6 | C=C(C)[C@@H]1CC[C@]2(C(=O)O)CC[C@]3(C)[C@H](CC[C@@H]4[C@@]5(C)CC=C(c6cccc(C(=O)O)c6)C(C)(C)[C@@H]5CC[C@]43C)[C@@H]12 | 13.8 | > 8 |  |  | 
7 | C=C(C)[C@@H]1CC[C@]2(C(=O)O)CC[C@]3(C)[C@H](CC[C@@H]4[C@@]5(C)CC=C(c6cccc(NS(C)(=O)=O)c6)C(C)(C)[C@@H]5CC[C@]43C)[C@@H]12 | 12.7 | 2.13 |  |  | 
8 | C=C(C)[C@@H]1CC[C@]2(CO)CC[C@]3(C)[C@H](CC[C@@H]4[C@@]5(C)CC=C(c6ccc(C(=O)O)c(Cl)c6)C(C)(C)[C@@H]5CC[C@]43C)[C@@H]12 | 1.97 | 0.024 | 3.9 | 0.094 | 0.262
9 | C=C(C)[C@@H]1CC[C@]2(C(=O)O)CC[C@]3(C)[C@H](CC[C@@H]4[C@@]5(C)CC=C(c6ccc(C(=O)NC)cc6)C(C)(C)[C@@H]5CC[C@]43C)[C@@H]12 | 22.6 | 1.6 |  |  | 
10 | C=C(C)[C@@H]1CC[C@]2(C(=O)O)CC[C@]3(C)[C@H](CC[C@@H]4[C@@]5(C)CC=C(c6ccc(C(=O)NS(=O)(=O)C(C)C)cc6)C(C)(C)[C@@H]5CC[C@]43C)[C@@H]12 | 8.68 | 0.124 | 2.2 | 0.275 | 0.937
11 | C=C(C)[C@@H]1CC[C@]2(C(=O)O)CC[C@]3(C)[C@H](CC[C@@H]4[C@@]5(C)CC=C(c6ccccc6CCC(=O)O)C(C)(C)[C@@H]5CC[C@]43C)[C@@H]12 | 5.03 | 3.2 |  |  | 
12 | C=C(C)[C@@H]1CC[C@]2(CO)CC[C@]3(C)[C@H](CC[C@@H]4[C@@]5(C)CC=C(c6ccc(C(=O)O)c(OC)c6)C(C)(C)[C@@H]5CC[C@]43C)[C@@H]12 | 28.7 | 0.513 | 2.3 | 1.19 | > 4
13 | C=C(C)[C@@H]1CC[C@]2(C(=O)O)CC[C@]3(C)[C@H](CC[C@@H]4[C@@]5(C)CC[C@H](OC(=O)CC(C)(C)CC(=O)O)C(C)(C)[C@@H]5CC[C@]43C)[C@@H]12 | 4.25 | 0.004 | 227 | 0.909 | 
14 | C=C(C)[C@@H]1CC[C@]2(C(=O)O)CC[C@]3(C)[C@H](CC[C@@H]4[C@@]5(C)CC=C(c6ccn(CC(=O)O)n6)C(C)(C)[C@@H]5CC[C@]43C)[C@@H]12 | > 30 | 0.167 |  |  | > 3
15 | C=C(C)[C@@H]1CC[C@]2(C(=O)O)CC[C@]3(C)[C@H](CC[C@@H]4[C@@]5(C)CC=C(c6ccc(C(=O)O)s6)C(C)(C)[C@@H]5CC[C@]43C)[C@@H]12 | 0.79 | 0.059 |  |  | > 2
16 | C=C(C)[C@@H]1CC[C@]2(CO)CC[C@]3(C)[C@H](CC[C@@H]4[C@@]5(C)CC=C(c6cnc(C(=O)O)nc6)C(C)(C)[C@@H]5CC[C@]43C)[C@@H]12 | 22.3 | 1.08 | 1 | 1.08 | > 4
17 | C=C(C)[C@@H]1CC[C@]2(CO)CC[C@]3(C)[C@H](CC[C@@H]4[C@@]5(C)CC=C(c6ccc([N+](=O)[O-])cc6)C(C)(C)[C@@H]5CC[C@]43C)[C@@H]12 | 20 | > 4 |  | > 4 | > 4
